Here are results for 18 compounds from patent publication US5843904A, “Inhibitors of interleukin-1βconverting enzyme” (Vertex Pharmaceuticals, Inc., priority 1995, dated 1998).

pKi: −log10 of the molar value. Non-standard residues stand in square brackets, D forms with d. Residues, ends and D or L forms follow the SMILES beside them. No end group written: not given here. *: point of attachment. 4Abz = Nc1ccc(C(=O)O)cc1; Nphe = O=C(O)CNCc1ccccc1; Bz = O=C(c1ccccc1)*; CH2Cl = ClC*

One assay deals with T1, ICE (Homo sapiens, UniProt P29466).
T1 construct: The active enzyme exists as a tetramer of two p20 and two p10 subunits
T1 sequence (P29466 120-297 limits assumed): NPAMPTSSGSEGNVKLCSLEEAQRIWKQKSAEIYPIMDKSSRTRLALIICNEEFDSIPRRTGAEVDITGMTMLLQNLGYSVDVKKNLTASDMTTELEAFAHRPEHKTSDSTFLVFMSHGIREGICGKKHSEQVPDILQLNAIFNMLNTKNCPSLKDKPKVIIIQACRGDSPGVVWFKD
T1 sequence (P29466 317-404 limits assumed): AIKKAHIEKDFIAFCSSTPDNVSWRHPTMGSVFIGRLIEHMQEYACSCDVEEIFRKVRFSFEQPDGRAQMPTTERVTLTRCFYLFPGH
Nature of the assay: Inhibition of ICE: enzyme assay with UV-visible substrate (Succinyl-Tyr-Val-Ala-Asp-pNitroanilide). Type of assay: biochemical. To be noted: UV-visible substrate assay of Example 1; pH 8.1, 37° C., 80 μM substrate. From the text: The term "Ki " refers to a numerical measure of the effectiveness of a compound in inhibiting the activity of a target enzyme such as ICE. Lower values of Ki reflect higher effectiveness. The Ki value is a derived by fitting experimentally determined rate data to standard enzyme kinetic equations (see I. H. Segel, Enzyme Kinetics, Wiley-Interscience, 1975).
1. Enzyme assay with UV-visible substrate
This assay is run using an Succinyl-Tyr-Val-Ala-Asp-pNitroanilide substrate. Synthesis of analogous substrates is described by L. A. Reiter (Int. J. Peptide Protein Res. 43, 87-96 (1994)). The assay mixture contains:
65 μl buffer (10 mM Tris, 1 mM DTT, 0.1% CHAPS @pH 8.1)
10 μl ICE (50 nM final concentration to give a rate of ~1 mOD/min)
5 μl DMSO/Inhibitor mixture 20 μl 400 μM Substrate (80 μM final concentration)
100 μl total reaction volume
The visible ICE assay is run in a 96-well microtiter plate. Buffer, ICE and DMSO (if inhibitor is present) are added to the wells in the order listed. The components are left to incubate at room temperature for 15 minutes starting at the time that all components are present in all wells. The microtiter plate reader is set to incubate at 37° C. After the 15 minute incubation, substrate is added directly to the wells and the reaction is monitored by following the release of the chromophore (pNA) at 405-603 nm at 37° C. for 20 minutes. A linear fit of the data is performed and the rate is calculated in mOD/min. DMSO is only present during experiments involving inhibitors, buffer is used to make up the volume to 100 μl in the other experiments.
The following Ki values were determined for compounds 706, 710, 719, 720, 725-727, 729, 731, 733, 743, 745, and 747-757 using the assay described in Example 1.

The test system of assay [1] is primary cells or cell lines. The note with it: inhibition of one or more ICE homologs; cited from earlier work.

The pKi is the negative decadic logarithm of the Ki, by convention in mol/L. Regarding `CC(C)(C)[C@H](NC(=O)c1nccc2ccccc12)C(=O)N(CC(=O)N[C@H](C=O)CC(=O)O)Cc1ccccc1` [Compound 747, 3(S)-(2(S)-(Benzyl-(2-((isoquinoline-1-carbonyl)amino)-3,3-dimethylbutyryl)amino)acetylamino)-4-oxo-butyric Acid], the pKi on ICE is 7.62. For the compound `CC(C)[C@H](NC(=O)c1ccc(Cl)cc1)C(=O)N(CC(=O)N[C@H](C=O)CC(=O)O)Cc1ccccc1` [Compound 750, 3(5)-(2-((2(S)-(4-Chlorobenzoyl)amino-3-methylbutyryl)benzylamino)acetylamino)-4-oxo-butyric Acid], the pKi at ICE was 7.05. With “Tyr-Val-Ala-Asp-chloromethylketone (YVAD-CH2Cl)”, in assay [1], the inhibition of apoptosis result is given as “inhibition of apoptosis”. On to `CC(C)[C@H](NC(=O)c1ccccc1)C(=O)N(CC(=O)N[C@@H](C=O)CCC(=O)O)Cc1ccccc1` [Compound 754, 4(R)-(2(S)-((2-Benzoylamino-3-methylbutyryl)benzylamino)acetylamino)-5-oxopentanoic Acid] (Bz-Val-[Nphe]-[dE]-aldehyde), for which, on ICE, the pKi was 5.60. As for `COc1cc(C(=O)C(=O)N[C@H](C(=O)N(CC(=O)N[C@H](C=O)CC(=O)O)Cc2ccccc2)C(C)C)cc(OC)c1OC` [Compound 752], the negative logarithm of the Ki (pKi) at ICE was 7.21. Same read-out and setting: in the case of `CC(C)[C@H](NC(=O)OCc1ccccc1)C(=O)N(CC(=O)N[C@H](C=O)CC(=O)O)C1Cc2ccccc2C1` [Compound 757, 3(S)-(2-((2(S)-(Benzyloxycarbonylamino-3-methylbutyryl)-indan-2-yl)amino)acetylamino)-4-oxobutyric Acid] it was 6.77; in that of `CC(=O)Nc1cccc(CN(CC(=O)N[C@H](C=O)CC(=O)O)C(=O)[C@@H](NC(=O)c2ccccc2)C(C)C)c1` [Compound 743, 3(S)-(2-((3-Acetylaminobenzyl)-(2(S)-benzoylamino-3-methylbutyryl)amino)acetylamino)-4-oxo-butyric Acid], 7.22.

For `CC(=O)Nc1ccc(C(=O)N[C@H](C(=O)N(CC(=O)N[C@H](C=O)CC(=O)O)Cc2ccccc2)C(C)C)cc1` [Compound 751, 3(S)-(2-((2(S)-(4-Acetylaminobenzoyl)amino-3-methylbutyryl)benzylamino)acetylamino)-4-oxo-butyric Acid] (Ac-[4Abz]V[Nphe]D-aldehyde), on ICE, the pKi is 7.15. At ICE, `CC(C)[C@H](NC(=O)c1ccccc1)C(=O)N(CC(=O)N[C@@H](CC(=O)O)C(=O)c1nc2cc(Cl)cc(Cl)c2o1)Cc1cccnc1` [Compound 720] had a pKi of 7.48.

The compound `CC(C)[C@H](NC(=O)c1nccc2ccccc12)C(=O)N(CC(=O)N[C@@H](C=O)CCC(=O)O)Cc1ccccc1` [Compound 755, 4(R)-(2(S)-(Benzyl-(2-((isoquinoline-1-carbonyl)amino)-3-methylbutyryl)amino)acetylamino)-5-oxopentanoic Acid] had a pKi on ICE of 6.41. The compound `CC(C)[C@H](NC(=O)c1ccccc1)C(=O)N(CC(=O)N[C@@H](CC(=O)O)C(=O)c1nc2cc(F)cc(Cl)c2o1)Cc1ccccc1` [Compound 719] gave a pKi on ICE of 7.70. At ICE, `CC(C)[C@H](NC(=O)c1ccccc1)C(=O)N(CC(=O)N[C@@H](CC(=O)O)C(=O)c1nc2cc(F)cc(F)c2o1)C1Cc2ccccc2C1` [Compound 726] had a pKi of 7.82. On to `CC(C)[C@H](NC(=O)c1ccc(Cl)cc1)C(=O)N(CC(=O)N[C@@H](CC(=O)O)C(=O)c1ncc(-c2c(Cl)cccc2Cl)o1)C1Cc2ccccc2C1` [Compound 733], for which the pKi at ICE is 8.12. For `CC(C)[C@H](NC(=O)C(=O)c1ccccc1)C(=O)N(CC(=O)N[C@H](C=O)CC(=O)O)Cc1ccccc1` [Compound 753, 3(S)-(2(S)-(Benzyl(3-methyl-2-(2-oxo-2-phenylacetylamino)butyryl)amino)acetylamino)-4-oxo-butyric Acid], at ICE, the pKi was 7.28. Regarding `CC(C)[C@H](NC(=O)c1nccc2ccccc12)C(=O)N(CC(=O)N[C@H](C=O)CC(=O)O)Cc1ccccc1` [Compound 748, 3(S)-(2(S)-(Benzyl-(2-((isoquinoline-1-carbonyl)amino)-3-methylbutyryl)amino)acetylamino)-4-oxo-butyric Acid], at ICE, the pKi was 8.22.

On to `CC(C)[C@H](NC(=O)c1ccccc1)C(=O)N(CC(=O)N[C@H](C=O)CC(=O)O)Cc1ccccc1` [Compound 706, 3(S)-(2-((2(S)-Benzoylamino-3-methylbutyryl)benzylamino)acetylamino)-4-oxo-butyric Acid] (Bz-Val-[Nphe]-Asp-aldehyde), for which the negative-log Ki (pKi) on ICE was 7.16. In turn, `CC(C)[C@H](NC(=O)c1cccc2ccccc12)C(=O)N(CC(=O)N[C@H](C=O)CC(=O)O)Cc1ccccc1` [Compound 749, 3(S)-(2(S)-(Benzyl-(2-((napthalene-1-carbonyl)amino)-3-methylbutyryl)amino)acetylamino)-4-oxo-butyric Acid] had a pKi on ICE of 8.15. `CC(C)[C@H](NC(=O)c1ccccc1)C(=O)N(CC(=O)N[C@H](C=O)CC(=O)O)Cc1cccc(NS(C)(=O)=O)c1` [Compound 745] showed a pKi at ICE of 7.35.
